The values below come from article PMC9227536, “Prediction of Pharmacokinetics of IDP-73152 in Humans Using Physiologically-Based Pharmacokinetics” (Pharmaceutics, 2022).

Molecules are shown by their SMILES.

The data set is described as follows: PBPK model prediction, dogs. From the text: In this study, the PBPK model involving ten tissues (i.e., adipose tissue, brain, heart, kidney, liver, lung, muscle, skin, spleen, and testis (Figure 2; see Appendix A for detailed mathematical descriptions)) was considered to be applicable for the description of IDP-73152 PK in rats, mice, dogs, and humans. Physiological variables were obtained from the literature; they are summarized in Supplementary Table S1.
For the estimation of the volume of the distribution of IDP-73512 in rats, the steady-state volume of distribution (Vss) was calculated using the following equation [30]:(10) Vss=VP+Vrbc×EP+∑VT,i×KP,ss,i, where Vp, Vrbc, and VT,i are the volumes of plasma, red blood cells, and tissues, respectively. The erythrocyte-to-plasma partition coefficient (EP), is calculated by EP=1+(BP−1)/Hematocrit . The KP,ss for each tissue obtained from Equation (8) was applied for Equation (10). For the case of non-eliminating organs, the KP,ss was regarded as the tissue-to-plasma partition coefficient (KP) in PBPK equations (Appendix A). For the case of the liver—i.e., the eliminating organ—the KP,ss (KP,ss,LI) had to be corrected to account for the equilibrium being altered by the elimination. Thus, a PBPK-operative KP for liver (KP,LI) was calculated using the following equation [31]:(11) KP,LI=KP,ss,LI/(1−ER), where ER is the hepatic extraction ratio of the compound (i.e., CLh/(QLI·BP)). In this study, a compartmental absorption and transit (CAT) model consisting of stomach and five intestinal segments was considered for the description of the intestinal absorption kinetics of IDP-73152 in animals and humans. We assumed that the initial compartment denoted the stomach (Equation (12)), and the subsequent three compartments represented the small intestine and two additional compartments for the large intestine (i.e., a total of six compartments, with absorption occurring in the five intestinal compartments) (Equation (13)). The differential equations describing the rate of drug absorption and transit in the gastrointestinal tract can be written as:
For the intestine, viz. i = 1~5:(13) dMi/dt=Kt,i−1×Mi−1−(Kt,i+ka,i)×Mi, where Ms is the amount of drug in the stomach; Mi is the amount of drug in the i-th intestinal segment; Ks, Kt,i, and ka,i are the rate constants of gastric emptying, intestinal transit, and the segmental absorption rate, respectively. In Equation (13) at i = 1, Kt,0 and M0 represent Ks and Ms, respectively. […] The absorption rate constant in the intestinal segments in humans, ka,i,human, was assumed to be identical along the segments and calculated as follows: first, Peff was empirically estimated from the Caco-2 cell permeability (Papp):(14) LogPeff=0.4926×LogPapp−0.1454 […]

`CC(C)(C)[C@H](NC(=O)[C@H](CC1CCCC1)CN(O)C=O)C(=O)N1CCC(NCc2cc(F)c(F)cc2F)CC1` [IDP-73152]: under “intravenous 10 mg/kg”, the AUC ratio is listed as 1.13. Also, the “Cmax ratio without the scaling (SF)” value (oral) was 0.760. Also, under “oral 20 mg/kg”, the AUC ratio was 1.08 and the Cmax ratio is listed as 0.832.
